# ChEMBL document CHEMBL1275444, “Fitness trade-offs in blaTEM evolution” (2008)
# Activity calls are given as the source filed them. No cut-off for these calls is given here.
# How the values were obtained:
# [1] = tested on: Escherichia coli; test: Antibacterial activity against Escherichia coli TP1 harboring pBR322 carrying TEM-12 assessed as inhibition of bacterial growth at <=16 ug/ml after 18 hrs; type: functional, organism-based
# [2] = tested on: Escherichia coli; test: Antibacterial activity against Escherichia coli TP1 harboring pBR322 carrying TEM-10 assessed as inhibition of bacterial growth at >64 ug/ml after 18 hrs; type: functional, organism-based
# [3] = tested on: Escherichia coli
# Description: Ratio of Kcat to Km for Escherichia coli Beta-Lactamase TEM-12
Structure (SMILES),inhibition [1],inhibition [2],kcat/Km [3] [×10⁷ /M/s]
CC(C)(O/N=C(\C(=O)N[C@@H]1C(=O)N2C(C(=O)[O-])=C(C[n+]3ccccc3)CS[C@H]12)c1csc(N)n1)C(=O)O,inactive,Active,–
CC1(C)S[C@@H]2[C@H](NC(=O)[C@H](N)c3ccccc3)C(=O)N2[C@H]1C(=O)O,–,–,4.2
